Data on one compound can be found in publication PMC5578373, “Inhibitory Kappa B Kinase α (IKKα) Inhibitors That Recapitulate Their Selectivity in Cells against Isoform-Related Biomarkers” (Journal of Medicinal Chemistry, 2017).

What all share (experiment): Millipore Kinase Profiler, single concentration
Assay type in all cases: biochemical
Details in all cases: duplicate assay points, read-out: % residual activity

Assay [1] concerns the target T1, CHK1(h) (Homo sapiens, UniProt O14757).
T1 construct: purchased Millipore KinaseProfiler
The text has this: (§1) Kinase profiling of compound 48 was outsourced to Millipore, specifically the Kinase Profiler Customer Service for single concentration studies using duplicate assay points.

The target of assay [2] is T2, EphB4(h) (Homo sapiens, UniProt P54760).
T2 construct: purchased Millipore KinaseProfiler
From the text: as §1

Assay [3] concerns the target T3, Rsk1(h) (Homo sapiens, UniProt Q15418).
T3 construct: purchased Millipore KinaseProfiler
From the text: as §1

Assay [4] has as its target T4, Abl(h) (Homo sapiens, UniProt P00519).
T4 construct: purchased Millipore KinaseProfiler
From the text: as §1

Assay [5] deals with T5, HIPK1(h) (Homo sapiens, UniProt Q86Z02).
T5 construct: purchased Millipore KinaseProfiler
From the text: as §1

For assay [6], the target named is T6, IR(h) (Homo sapiens, UniProt P06213).
T6 construct: purchased Millipore KinaseProfiler
From the text: as §1

Assay [7] concerns the target T7, CDK2/cyclinA(h) (Homo sapiens, UniProt P24941).
T7 construct: purchased Millipore KinaseProfiler
From the text: as §1

Assay [8] concerns the target T8, MAPKAP-K2(h) (Homo sapiens, UniProt P49137).
T8 construct: purchased Millipore KinaseProfiler
From the text: as §1

Assay [9] addresses T9, cSRC(h) (Homo sapiens, UniProt P12931).
T9 construct: purchased Millipore KinaseProfiler
From the text: as §1

Assay [10] addresses T10, FGFR3(h) (Homo sapiens, UniProt P22607).
T10 construct: purchased Millipore KinaseProfiler
From the text: as §1

The target in assay [11] is T11, PKCη(h) (Homo sapiens, UniProt P24723).
T11 construct: purchased Millipore KinaseProfiler
From the text: as §1

The target of assay [12] is T12, ALK(h) (Homo sapiens, UniProt Q9UM73).
T12 construct: purchased Millipore KinaseProfiler
From the text: as §1

The target of assay [13] is T13, ROCK-II(h) (Homo sapiens, UniProt O75116).
T13 construct: purchased Millipore KinaseProfiler
From the text: as §1

Assay [14] addresses T14, Fes(h) (Homo sapiens, UniProt P07332).
T14 construct: purchased Millipore KinaseProfiler
From the text: as §1

For assay [15], the target named is T15, MEK1(h) (Homo sapiens, UniProt Q02750).
T15 construct: purchased Millipore KinaseProfiler
From the text: as §1

Assay [16] deals with T16, PAK2(h) (Homo sapiens, UniProt Q13177).
T16 construct: purchased Millipore KinaseProfiler
From the text: as §1

In assay [17] the target is T17, GSK3β(h) (Homo sapiens, UniProt P49841).
T17 construct: purchased Millipore KinaseProfiler
From the text: as §1

The target in assay [18] is T18, MST2(h) (Homo sapiens, UniProt Q13188).
T18 construct: purchased Millipore KinaseProfiler
From the text: as §1

For assay [19], the target named is T19, NEK2(h) (Homo sapiens, UniProt P51955).
T19 construct: purchased Millipore KinaseProfiler
From the text: as §1

Assay [20] deals with T20, CK2(h) (Homo sapiens, UniProt P68400).
T20 construct: purchased Millipore KinaseProfiler
From the text: as §1

In assay [21] the target is T21, AMPKα1(h) (Homo sapiens, UniProt Q13131).
T21 construct: purchased Millipore KinaseProfiler
From the text: as §1

In assay [22] the target is T22, TBK1(h) (Homo sapiens, UniProt Q9UHD2).
T22 construct: purchased Millipore KinaseProfiler
From the text: as §1

The target of assay [23] is T23, PKBα(h) (Homo sapiens, UniProt P31749).
T23 construct: purchased Millipore KinaseProfiler
From the text: as §1

Assay [24] concerns the target T24, PKCμ(h) (Homo sapiens, UniProt Q15139).
T24 construct: purchased Millipore KinaseProfiler
From the text: as §1

Molecules are shown by their SMILES.

T20 sequence (P68400 whole entry): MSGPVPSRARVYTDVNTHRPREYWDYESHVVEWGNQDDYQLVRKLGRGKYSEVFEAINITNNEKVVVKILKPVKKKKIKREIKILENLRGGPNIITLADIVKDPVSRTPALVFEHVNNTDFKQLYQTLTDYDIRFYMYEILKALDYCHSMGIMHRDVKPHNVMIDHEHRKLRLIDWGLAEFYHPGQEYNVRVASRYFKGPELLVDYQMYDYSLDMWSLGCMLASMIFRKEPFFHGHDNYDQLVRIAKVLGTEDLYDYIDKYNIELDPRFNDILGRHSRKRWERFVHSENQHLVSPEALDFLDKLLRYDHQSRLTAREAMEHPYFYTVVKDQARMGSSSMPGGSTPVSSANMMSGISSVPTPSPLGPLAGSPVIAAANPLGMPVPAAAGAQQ
T20 sequence (P67870 whole entry partner): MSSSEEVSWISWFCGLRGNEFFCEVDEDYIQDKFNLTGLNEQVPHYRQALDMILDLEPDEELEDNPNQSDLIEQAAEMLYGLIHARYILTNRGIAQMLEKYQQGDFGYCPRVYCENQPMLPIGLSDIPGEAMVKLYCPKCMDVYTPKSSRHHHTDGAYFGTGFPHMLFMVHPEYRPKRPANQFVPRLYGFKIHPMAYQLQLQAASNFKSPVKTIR
T12 sequence (Q9UM73 19-1620): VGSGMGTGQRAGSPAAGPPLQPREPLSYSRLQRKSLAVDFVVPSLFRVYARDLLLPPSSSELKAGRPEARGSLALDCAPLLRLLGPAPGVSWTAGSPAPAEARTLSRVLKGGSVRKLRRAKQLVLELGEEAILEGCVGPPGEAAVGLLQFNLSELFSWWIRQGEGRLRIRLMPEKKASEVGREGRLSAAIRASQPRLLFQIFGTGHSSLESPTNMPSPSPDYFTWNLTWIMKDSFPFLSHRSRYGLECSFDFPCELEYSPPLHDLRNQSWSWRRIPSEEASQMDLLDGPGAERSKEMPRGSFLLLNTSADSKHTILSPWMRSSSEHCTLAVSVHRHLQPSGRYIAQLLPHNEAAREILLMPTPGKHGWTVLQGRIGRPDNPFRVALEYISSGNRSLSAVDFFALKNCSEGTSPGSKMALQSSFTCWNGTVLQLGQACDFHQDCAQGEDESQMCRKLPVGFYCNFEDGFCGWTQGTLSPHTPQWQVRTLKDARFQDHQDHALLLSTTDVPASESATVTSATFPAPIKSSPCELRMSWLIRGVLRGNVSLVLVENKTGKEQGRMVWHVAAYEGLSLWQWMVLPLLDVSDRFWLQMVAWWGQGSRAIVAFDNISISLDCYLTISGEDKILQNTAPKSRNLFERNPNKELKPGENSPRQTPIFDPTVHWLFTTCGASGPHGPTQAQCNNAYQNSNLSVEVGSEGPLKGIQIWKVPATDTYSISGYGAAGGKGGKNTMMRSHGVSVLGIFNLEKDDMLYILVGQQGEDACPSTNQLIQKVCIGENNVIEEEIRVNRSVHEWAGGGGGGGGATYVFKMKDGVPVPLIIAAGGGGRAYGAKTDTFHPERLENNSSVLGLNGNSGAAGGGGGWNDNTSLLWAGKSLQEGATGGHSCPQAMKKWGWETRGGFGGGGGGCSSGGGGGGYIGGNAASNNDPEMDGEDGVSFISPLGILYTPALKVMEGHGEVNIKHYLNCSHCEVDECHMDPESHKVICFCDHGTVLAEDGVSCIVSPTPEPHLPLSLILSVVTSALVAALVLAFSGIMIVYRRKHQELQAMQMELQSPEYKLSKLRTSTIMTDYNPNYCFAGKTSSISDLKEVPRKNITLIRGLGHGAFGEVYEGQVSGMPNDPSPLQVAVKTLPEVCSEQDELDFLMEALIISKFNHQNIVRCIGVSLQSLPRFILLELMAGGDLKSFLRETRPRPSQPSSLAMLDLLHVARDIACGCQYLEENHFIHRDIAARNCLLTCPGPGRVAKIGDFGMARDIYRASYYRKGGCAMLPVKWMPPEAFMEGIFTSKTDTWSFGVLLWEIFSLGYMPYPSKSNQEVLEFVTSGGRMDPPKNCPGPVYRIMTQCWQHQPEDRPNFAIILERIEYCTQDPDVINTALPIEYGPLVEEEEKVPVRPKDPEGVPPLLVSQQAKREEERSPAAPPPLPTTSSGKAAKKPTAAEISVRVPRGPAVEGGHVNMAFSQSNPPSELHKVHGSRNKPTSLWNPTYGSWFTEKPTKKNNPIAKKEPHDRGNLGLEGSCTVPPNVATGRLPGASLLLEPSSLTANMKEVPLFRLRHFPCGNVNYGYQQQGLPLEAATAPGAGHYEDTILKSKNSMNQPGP
T4 sequence (P00519 whole entry): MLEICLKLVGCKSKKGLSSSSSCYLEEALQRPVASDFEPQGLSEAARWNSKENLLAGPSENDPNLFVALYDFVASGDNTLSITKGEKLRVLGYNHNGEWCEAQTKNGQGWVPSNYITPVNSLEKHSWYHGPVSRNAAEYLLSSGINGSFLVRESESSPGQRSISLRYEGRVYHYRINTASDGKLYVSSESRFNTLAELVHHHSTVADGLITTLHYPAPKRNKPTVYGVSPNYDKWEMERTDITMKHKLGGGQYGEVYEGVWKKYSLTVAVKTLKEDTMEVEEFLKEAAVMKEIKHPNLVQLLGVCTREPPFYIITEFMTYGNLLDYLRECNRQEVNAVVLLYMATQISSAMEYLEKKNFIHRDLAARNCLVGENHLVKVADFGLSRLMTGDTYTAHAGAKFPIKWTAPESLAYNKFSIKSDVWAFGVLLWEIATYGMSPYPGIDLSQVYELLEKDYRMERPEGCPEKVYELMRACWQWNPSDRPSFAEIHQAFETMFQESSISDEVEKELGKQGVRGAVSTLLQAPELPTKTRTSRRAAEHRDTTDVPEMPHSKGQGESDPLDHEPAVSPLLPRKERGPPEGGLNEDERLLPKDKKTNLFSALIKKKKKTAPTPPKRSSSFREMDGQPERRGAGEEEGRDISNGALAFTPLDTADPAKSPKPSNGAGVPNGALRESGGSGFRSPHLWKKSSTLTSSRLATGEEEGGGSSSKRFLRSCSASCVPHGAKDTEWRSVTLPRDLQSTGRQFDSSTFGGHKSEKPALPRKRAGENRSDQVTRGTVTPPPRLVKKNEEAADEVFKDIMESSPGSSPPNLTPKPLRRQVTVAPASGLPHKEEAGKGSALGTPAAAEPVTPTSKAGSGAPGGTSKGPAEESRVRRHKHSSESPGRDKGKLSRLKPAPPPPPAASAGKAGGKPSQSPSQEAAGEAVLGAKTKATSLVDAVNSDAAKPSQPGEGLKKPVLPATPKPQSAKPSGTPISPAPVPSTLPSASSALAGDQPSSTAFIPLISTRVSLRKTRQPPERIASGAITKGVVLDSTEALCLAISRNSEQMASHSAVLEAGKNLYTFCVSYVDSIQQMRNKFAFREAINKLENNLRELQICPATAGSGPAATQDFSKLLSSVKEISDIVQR
T10 sequence (P22607 23-806): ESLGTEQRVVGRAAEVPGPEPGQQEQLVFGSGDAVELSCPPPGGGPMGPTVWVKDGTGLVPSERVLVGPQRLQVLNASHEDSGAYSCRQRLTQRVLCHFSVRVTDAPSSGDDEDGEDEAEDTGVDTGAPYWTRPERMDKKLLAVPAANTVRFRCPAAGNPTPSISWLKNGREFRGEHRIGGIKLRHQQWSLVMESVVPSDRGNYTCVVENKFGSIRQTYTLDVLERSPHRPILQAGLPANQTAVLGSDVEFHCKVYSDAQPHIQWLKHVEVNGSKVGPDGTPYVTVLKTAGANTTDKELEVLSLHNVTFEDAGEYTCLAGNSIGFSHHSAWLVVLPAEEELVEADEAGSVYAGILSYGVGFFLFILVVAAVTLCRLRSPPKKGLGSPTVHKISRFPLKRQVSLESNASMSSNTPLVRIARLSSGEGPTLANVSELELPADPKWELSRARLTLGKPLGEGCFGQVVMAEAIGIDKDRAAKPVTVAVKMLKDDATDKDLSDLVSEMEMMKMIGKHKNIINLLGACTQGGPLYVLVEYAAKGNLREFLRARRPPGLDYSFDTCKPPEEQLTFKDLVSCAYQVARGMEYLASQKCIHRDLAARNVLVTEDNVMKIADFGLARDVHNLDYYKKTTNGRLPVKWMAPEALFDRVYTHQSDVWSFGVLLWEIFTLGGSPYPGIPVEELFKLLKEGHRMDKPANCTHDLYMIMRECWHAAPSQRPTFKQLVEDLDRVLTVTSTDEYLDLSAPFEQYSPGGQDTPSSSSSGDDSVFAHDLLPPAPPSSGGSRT
T18 sequence (Q13188 whole entry): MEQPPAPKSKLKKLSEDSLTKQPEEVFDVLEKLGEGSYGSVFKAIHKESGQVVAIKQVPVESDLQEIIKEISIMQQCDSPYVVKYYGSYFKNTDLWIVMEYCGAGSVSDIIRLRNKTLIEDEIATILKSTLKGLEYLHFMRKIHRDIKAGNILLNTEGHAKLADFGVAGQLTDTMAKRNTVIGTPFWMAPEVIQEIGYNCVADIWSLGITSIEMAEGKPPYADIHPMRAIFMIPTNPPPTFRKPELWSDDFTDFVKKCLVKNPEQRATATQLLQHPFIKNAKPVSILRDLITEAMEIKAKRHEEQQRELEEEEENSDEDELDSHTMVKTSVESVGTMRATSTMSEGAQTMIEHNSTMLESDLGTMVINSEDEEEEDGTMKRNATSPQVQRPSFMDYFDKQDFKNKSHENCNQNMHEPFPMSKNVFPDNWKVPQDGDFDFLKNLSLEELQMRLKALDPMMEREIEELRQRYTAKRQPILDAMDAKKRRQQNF
T19 sequence (P51955 whole entry): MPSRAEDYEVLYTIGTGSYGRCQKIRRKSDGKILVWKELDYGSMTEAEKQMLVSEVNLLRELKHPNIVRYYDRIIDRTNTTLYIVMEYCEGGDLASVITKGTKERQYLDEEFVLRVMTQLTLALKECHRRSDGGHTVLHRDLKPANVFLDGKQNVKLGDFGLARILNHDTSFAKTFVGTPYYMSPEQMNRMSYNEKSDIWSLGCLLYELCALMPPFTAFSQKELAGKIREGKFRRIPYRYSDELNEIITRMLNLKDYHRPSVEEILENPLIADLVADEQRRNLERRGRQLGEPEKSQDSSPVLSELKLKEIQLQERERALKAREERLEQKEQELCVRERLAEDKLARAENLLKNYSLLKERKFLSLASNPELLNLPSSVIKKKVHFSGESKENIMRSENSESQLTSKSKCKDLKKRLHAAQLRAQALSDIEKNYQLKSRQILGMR

As to `N#Cc1c[nH]c2nc(N)nc(-c3ccc(S(N)(=O)=O)cc3)c12` [Compound 48, 4-(2-Amino-5-cyano-7H-pyrrolo[2,3-d]pyrimidin-4-yl)benzenesulfonamide], the remaining activity at 10 µM in assay [1] was 58%; in assay [2], 56%; in assay [3], 39%; in [4], 69%; in [5] it was 90%; in assay [6], 89%. The remaining activity at 10 µM in assay [7] worked out at 20%; in assay [8], 69%; in assay [9], 76%; in [10] it was 32%; in assay [11], 53%; in assay [12], 84%. Also, the remaining activity at 10 µM in [13] came to 20%; in assay [14] it was 27%; in [15], 14%; in assay [16], 73%; in [17], 16%; in [18] it was 59%. The remaining activity at 10 µM was determined as 96% in assay [19]; 37% in assay [20]; 22% in assay [21]; 54% in assay [22]; 93% in assay [23]; 10% in assay [24].
